Assay results taken from patent publication US20220177508A1, “C10-Cyclic Substituted 13-Membered Macrolides and Uses Thereof” (Zikani Therapeutics, Inc., priority 2018, published 2022).
Values after ≈ are worked out from the molar mass of the structure shown.

Assays:
Type in all cases: cell-based
K. pneumoniae MP-546 = experiment: Broth dilution MIC determination (CLSI), K. pneumoniae MP-546; details: Klebsiella pneumoniae, MP546; strain MP-546, broth dilution
A. baumannii MP-15 = experiment: Broth dilution MIC determination (CLSI), A. baumannii MP-15; details: Acinetobacter baumannii, MP15; strain MP-15, broth dilution; read-out: MIC A. baumanii MP-15
P. aeruginosa MP-3 = experiment: Broth dilution MIC determination (CLSI), P. aeruginosa MP-3; details: Pseudomonas aeruginosa, MP3; strain MP-3, broth dilution
E. coli MP-4 = experiment: Broth dilution MIC determination (CLSI), E. coli MP-4; details: Escherichia coli, MP4; strain MP-4, broth dilution; read-out: MIC E. coli MP-4
S. aureus MP-12 = experiment: Broth dilution MIC determination (CLSI), S. aureus MP-12; details: Staphylococcus aureus, MP12; strain MP-12, broth dilution

MIC (K. pneumoniae MP-546) | MIC (A. baumannii MP-15) | MIC (P. aeruginosa MP-3) | MIC (E. coli MP-4) | MIC (S. aureus MP-12) | SMILES
> 32 µg/mL | > 32 µg/mL | > 32 µg/mL | > 32 µg/mL | > 32 µg/mL | CO[C@]1(C)C[C@@H](C)CN(C)[C@H](C2CCCCC2)COC(=O)C(C)(C)C(=O)[C@H](C)[C@H]1O[C@@H]1O[C@H](C)C[C@H](N(C)C)[C@H]1O [Compound 88, (3R,6R,8R,9R,10R)-3-cyclohexyl-9-(((2S,3R,4S,6R)-4-(dimethylamino)-3-hydroxy-6-methyltetrahydro-2H-pyran-2-yl)oxy)-8-methoxy-4,6,8,10,12,12-hexamethyl-1-oxa-4-azacyclotridecane-11,13-dione]
> 32 µg/mL | > 32 µg/mL | > 32 µg/mL | 4 to 32 µg/mL (≈ 6.69 to 53.5 µM) | > 32 µg/mL | CO[C@]1(C)C[C@@H](C)CN(C)[C@@H]([C@H]2CCCN(C)C2)COC(=O)C(C)(C)C(=O)[C@H](C)[C@H]1O[C@@H]1O[C@H](C)C[C@H](N(C)C)[C@H]1O [Compound 89, (3S,6R,8R,9R,10R)-9-(((2S,3R,4S,6R)-4-(dimethylamino)-3-hydroxy-6-methyltetrahydro-2H-pyran-2-yl)oxy)-8-methoxy-4,6,8,10,12,12-hexamethyl-3-((S)-1-methylpiperidin-3-yl)-1-oxa-4-azacyclotridecane-11,13-dione]
4 to 32 µg/mL (≈ 6.39 to 51.1 µM) | > 32 µg/mL | > 32 µg/mL | 4 to 32 µg/mL (≈ 6.39 to 51.1 µM) | > 32 µg/mL | CO[C@]1(C)C[C@@H](C)CN(C)[C@H]([C@@H]2CCCN(C(C)C)C2)COC(=O)C(C)(C)C(=O)[C@H](C)[C@H]1O[C@@H]1O[C@H](C)C[C@H](N(C)C)[C@H]1O [Compound 90, (3R,6R,8R,9R,10R)-9-(((2S,3R,4S,6R)-4-(dimethylamino)-3-hydroxy-6-methyltetrahydro-2H-pyran-2-yl)oxy)-3-((R)-1-isopropylpiperidin-3-yl)-8-methoxy-4,6,8,10,12,12-hexamethyl-1-oxa-4-azacyclotridecane-11,13-dione]
4 to 32 µg/mL (≈ 6.39 to 51.1 µM) | > 32 µg/mL | > 32 µg/mL | < 4 µg/mL | > 32 µg/mL | CO[C@]1(C)C[C@@H](C)CN(C)[C@H](C2CN(CC3COC3)C2)COC(=O)C(C)(C)C(=O)[C@H](C)[C@H]1O[C@@H]1O[C@H](C)C[C@H](N(C)C)[C@H]1O [Compound 91, (3R,6R,8R,9R,10R)-9-(((2S,3R,4S,6R)-4-(dimethylamino)-3-hydroxy-6-methyltetrahydro-2H-pyran-2-yl)oxy)-8-methoxy-4,6,8,10,12,12-hexamethyl-3-(1-(oxetan-3-ylmethyl)azetidin-3-yl)-1-oxa-4-azacyclotridecane-11,13-dione]
> 32 µg/mL | > 32 µg/mL | > 32 µg/mL | 4 to 32 µg/mL (≈ 6.01 to 48.1 µM) | 4 to 32 µg/mL (≈ 6.01 to 48.1 µM) | CO[C@]1(C)C[C@@H](C)CN(C)[C@H](C2CCN(CC(F)(F)F)CC2)COC(=O)C(C)(C)C(=O)[C@H](C)[C@H]1O[C@@H]1O[C@H](C)C[C@H](N(C)C)[C@H]1O [Compound 92, (3R,6R,8R,9R,10R)-9-(((2S,3R,4S,6R)-4-(dimethylamino)-3-hydroxy-6-methyltetrahydro-2H-pyran-2-yl)oxy)-8-methoxy-4,6,8,10,12,12-hexamethyl-3-(1-(2,2,2-trifluoroethyl)piperidin-4-yl)-1-oxa-4-azacyclotridecane-11,13-dione]
> 32 µg/mL | > 32 µg/mL | > 32 µg/mL | 4 to 32 µg/mL (≈ 5.99 to 47.9 µM) | 4 to 32 µg/mL (≈ 5.99 to 47.9 µM) | CO[C@]1(C)C[C@@H](C)CN(C)[C@H](c2ccc(-c3cccc(N)c3)cc2)COC(=O)C(C)(C)C(=O)[C@H](C)[C@H]1O[C@@H]1O[C@H](C)C[C@H](N(C)C)[C@H]1O [Compound 93, (3R,6R,8R,9R,10R)-3-(3′-Amino-[1,1′-biphenyl]-4-yl)-9-(((2S,3R,4S,6R)-4-(dimethylamino)-3-hydroxy-6-methyltetrahydro-2H-pyran-2-yl)oxy)-8-methoxy-4,6,8,10,12,12-hexamethyl-1-oxa-4-azacyclotridecane-11,13-dione]
> 32 µg/mL | > 32 µg/mL | > 32 µg/mL | 4 to 32 µg/mL (≈ 5.98 to 47.8 µM) | > 32 µg/mL | CO[C@]1(C)C[C@@H](C)CN(C)[C@H]([C@H]2CCCN(C(=O)CN(C)C)C2)COC(=O)C(C)(C)C(=O)[C@H](C)[C@H]1O[C@@H]1O[C@H](C)C[C@H](N(C)C)[C@H]1O [Compound 96, (3R,6R,8R,9R,10R)-9-(((2S,3R,4S,6R)-4-(dimethylamino)-3-hydroxy-6-methyltetrahydro-2H-pyran-2-yl)oxy)-3-((S)-1-(dimethylglycyl)piperidin-3-yl)-8-methoxy-4,6,8,10,12,12-hexamethyl-1-oxa-4-azacyclotridecane-11,13-dione]
4 to 32 µg/mL (≈ 6.85 to 54.8 µM) | > 32 µg/mL | > 32 µg/mL | < 4 µg/mL | 4 to 32 µg/mL (≈ 6.85 to 54.8 µM) | CO[C@]1(C)C[C@@H](C)CN(C)[C@@H](C2CCNCC2)COC(=O)C(C)(C)C(=O)[C@H](C)[C@H]1O[C@@H]1O[C@H](C)C[C@H](N(C)C)[C@H]1O [Compound 98, (3S,6R,8R,9R,10R)-9-(((2S,3R,4S,6R)-4-(dimethylamino)-3-hydroxy-6-methyltetrahydro-2H-pyran-2-yl)oxy)-8-methoxy-4,6,8,10,12,12-hexamethyl-3-(piperidin-4-yl)-1-oxa-4-azacyclotridecane-11,13-dione]
< 4 µg/mL | > 32 µg/mL | > 32 µg/mL | < 4 µg/mL | > 32 µg/mL | CO[C@]1(C)C[C@@H](C)CN(C)[C@@H](C2CN(C)C2)COC(=O)C(C)(C)C(=O)[C@H](C)[C@H]1O[C@@H]1O[C@H](C)C[C@H](N(C)C)[C@H]1O [Compound 99, (3S,6R,8R,9R,10R)-9-(((2S,3R,4S,6R)-4-(dimethylamino)-3-hydroxy-6-methyltetrahydro-2H-pyran-2-yl)oxy)-8-methoxy-4,6,8,10,12,12-hexamethyl-3-(1-methylazetidin-3-yl)-1-oxa-4-azacyclotridecane-11,13-dione]
4 to 32 µg/mL (≈ 6.11 to 48.9 µM) | > 32 µg/mL | > 32 µg/mL | 4 to 32 µg/mL (≈ 6.11 to 48.9 µM) | > 32 µg/mL | CO[C@]1(C)C[C@@H](C)CN(C)[C@H]([C@H]2CCN(C(=O)CN(C)C)C2)COC(=O)C(C)(C)C(=O)[C@H](C)[C@H]1O[C@@H]1O[C@H](C)C[C@H](N(C)C)[C@H]1O [Compound 100, (3R,6R,8R,9R,10R)-9-(((2S,3R,4S,6R)-4-(Dimethylamino)-3-hydroxy-6-methyltetrahydro-2H-pyran-2-yl)oxy)-3-((S)-1-(dimethylglycyl)pyrrolidin-3-yl)-8-methoxy-4,6,8,10,12,12-hexamethyl-1-oxa-4-azacyclotridecane-11,13-dione]

SMILES | MIC (K. pneumoniae MP-546) | MIC (A. baumannii MP-15) | MIC (P. aeruginosa MP-3) | MIC (E. coli MP-4) | MIC (S. aureus MP-12)
CO[C@]1(C)C[C@@H](C)CN(C)[C@H](C2CC3CCC(C2)N3CC(C)C)COC(=O)C(C)(C)C(=O)[C@H](C)[C@H]1O[C@@H]1O[C@H](C)C[C@H](N(C)C)[C@H]1O (stereo partly drawn) [Compound 87, (3R,6R,8R,9R,10R)-9-(((2S,3R,4S,6R)-4-(dimethylamino)-3-hydroxy-6-methyltetrahydro-2H-pyran-2-yl)oxy)-3-(8-isobutyl-8-azabicyclo[3.2.1]octan-3-yl)-8-methoxy-4,6,8,10,12,12-hexamethyl-1-oxa-4-azacyclotridecane-11,13-dione] | 4 to 32 µg/mL (≈ 6.01 to 48.1 µM) | > 32 µg/mL | > 32 µg/mL | < 4 µg/mL | < 4 µg/mL
